Patent US20250230193A1, “CYCLIC COMPOUND HAVING SELECTIVE KRAS INHIBITORY EFFECT ON HRAS AND NRAS” (CHUGAI SEIYAKU KABUSHIKI KAISHA, priority 2022, published 2025)
Where a SMILES comes first, the peptide text is derived from it. Bridges are numbered along the chain shown (N, C = ends). [ ]: non-standard residue; d: D form. The star is where a group is joined. hPhe(3,5-F2-4-CF3) = N[C@@H](CCc1cc(F)c(C(F)(F)F)c(F)c1)C(=O)O; hPhe(3-Cl-4-CF3) = N[C@@H](CCc1ccc(C(F)(F)F)c(Cl)c1)C(=O)O; NPrPhe(4-CF3) = CCCN[C@@H](Cc1ccc(C(F)(F)F)cc1)C(=O)O; NMeGly(cPent) = CN[C@H](C(=O)O)C1CCCC1; NMeNva(3-Et) = CCC(CC)[C@H](NC)C(=O)O; αMeCha = C[C@](N)(CC1CCCCC1)C(=O)O; NMeD = CN[C@@H](CC(=O)O)C(=O)O; NMeL = CN[C@@H](CC(C)C)C(=O)O; Morpholide = C1CN(*)CCO1; Ac4c = NC1(C(=O)O)CCC1; Sar = CNCC(=O)O

Key:
[1] = biological target: GDP-bound NRAS wild-type protein (Homo sapiens, UniProt P01111); assay: Binding to NRAS by surface plasmon resonance (SPR), Single Cycle Kinetics; details: SPR; for NRAS/KRAS (ratio of KD value for NRAS to KD value for KRAS) / NRAS/KRAS (ratio of KD value with respect to NRAS to KD value with respect to KRAS): GDP-bound NRAS wild-type vs GDP-bound KRAS wild-type
GDP-bound NRAS wild-type protein, sequence (P01111 whole entry): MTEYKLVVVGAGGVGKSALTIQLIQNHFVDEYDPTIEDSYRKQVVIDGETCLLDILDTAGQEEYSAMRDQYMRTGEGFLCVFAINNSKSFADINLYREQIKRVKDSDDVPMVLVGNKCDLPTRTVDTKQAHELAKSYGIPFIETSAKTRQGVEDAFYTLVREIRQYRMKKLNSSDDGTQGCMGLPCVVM

[2] = biological target: GDP-bound HRAS wild-type protein (Homo sapiens, UniProt P01112); assay: Binding to HRAS by surface plasmon resonance (SPR), Single Cycle Kinetics; details: SPR; for HRAS/KRAS (ratio of KD value for HRAS to KD value for KRAS) / HRAS/KRAS (ratio of KD value with respect to HRAS to KD value with respect to KRAS): GDP-bound HRAS wild-type vs GDP-bound KRAS wild-type
GDP-bound HRAS wild-type protein, sequence (P01112 whole entry): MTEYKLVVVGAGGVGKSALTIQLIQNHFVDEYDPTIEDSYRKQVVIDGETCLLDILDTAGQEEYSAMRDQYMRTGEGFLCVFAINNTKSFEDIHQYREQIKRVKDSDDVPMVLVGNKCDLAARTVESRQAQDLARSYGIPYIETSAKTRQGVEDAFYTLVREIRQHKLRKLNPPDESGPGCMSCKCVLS

CCCN1C(=O)CN(C)C(=O)CN(C)C(=O)[C@H]([C@@H](C)CC)NC(=O)[C@H](CC(C)C)N(C)C(=O)C[C@@H](C(=O)N2CCOCC2)N(C)C(=O)[C@H](C2CCCC2)N(C)C(=O)[C@](C)(CC2CCCCC2)NC(=O)[C@@H]2CCCN2C(=O)[C@H](CCc2cc(F)c(C(F)(F)F)c(F)c2)NC(=O)CN(C)C(=O)[C@@H]1Cc1ccc(C(F)(F)F)cc1 [PP0760] ([NMeL]I[Sar][Sar][NPrPhe(4-CF3)][Sar][hPhe(3,5-F2-4-CF3)]P[αMeCha][NMeGly(cPent)][NMeD]-Morpholide; lactam N-11)
NRAS/KRAS (ratio of KD value with respect to GDP-bound NRAS wild-type protein to KD value with respect to KRAS) [1]: B (a compound having 3 or more and less than 10 is denoted as B)
HRAS/KRAS (ratio of KD value with respect to GDP-bound HRAS wild-type protein to KD value with respect to KRAS) [2]: C (A compound having a KD ratio of 0.1 or more and less than 3 is denoted as C)

CC[C@H](C)[C@@H]1NC(=O)[C@H](CC(F)(F)F)N(C)C(=O)C[C@@H](C(=O)N(C)C)N(C)C(=O)[C@H](C2CCCC2)N(C)C(=O)C2(CC(C)(C)C2)NC(=O)[C@@H]2CCCN2C(=O)[C@H](CCc2cc(F)c(C(F)(F)F)c(F)c2)NC(=O)CN(C)C(=O)[C@H](Cc2ccc(C(F)(F)F)cc2)N2CC/C=C\C[C@@H](C2=O)N(C)C(=O)CN(C)C1=O [PP1722]
NRAS/KRAS (ratio of KD value for NRAS to KD value for KRAS) ([1]; KD ratio): AA (a compound having 20 or more is denoted as AA)
HRAS/KRAS (ratio of KD value for HRAS to KD value for KRAS) ([2]; KD ratio): A (a compound having 10 or more and less than 20 is denoted as A)

CCC[C@H]1C(=O)N[C@@H]([C@@H](C)CC)C(=O)N2CCC[C@H]2C(=O)N(C)[C@H]2C/C=C\CCN(C2=O)[C@@H](CC2CCC(F)(F)CC2)C(=O)N(C)CC(=O)N[C@@H](CCc2ccc(C(F)(F)F)c(OC)c2)C(=O)N2C[C@H](OCC)C[C@H]2C(=O)N(C)C2(CCC2)C(=O)N(C)[C@@H](C(CC)CC)C(=O)N(C)[C@H](C(=O)N(C)C)CC(=O)N1C [PP2353]
NRAS/KRAS (ratio of KD value with respect to NRAS to KD value with respect to KRAS) [1]: A (a compound having 10 or more and less than 20 is denoted as A)
HRAS/KRAS (ratio of KD value with respect to HRAS to KD value with respect to KRAS) [2]: A (a compound having 10 or more and less than 20 is denoted as A)

CCO[C@@H]1C[C@H]2C(=O)NC3(CCC3)C(=O)N(C)[C@@H](C3CCCC3)C(=O)N(C)[C@H](C3CCC3)CC(=O)N(C)[C@@H](CC3CC3)C(=O)N[C@@H]([C@@H](C)CC)C(=O)N(C)CC(=O)N(C)[C@H]3C/C=C\CCN(C3=O)[C@@H](Cc3ccc(C(F)(F)F)cc3)C(=O)N(C)CC(=O)N[C@@H](CCc3cc(F)c(C(F)(F)F)c(F)c3)C(=O)N2C1 [PP1637]
NRAS/KRAS (ratio of KD value for NRAS to KD value for KRAS) ([1]; KD ratio): A (a compound having 10 or more and less than 20 is denoted as A)
HRAS/KRAS (ratio of KD value for HRAS to KD value for KRAS) ([2]; KD ratio): A (a compound having 10 or more and less than 20 is denoted as A)

CCO[C@@H]1C[C@H]2C(=O)NC3(CCC3)C(=O)N(C)[C@@H](C3CCCC3)C(=O)N(C)[C@H](C(=O)N(C)C)CC(=O)N(C)[C@@H](C)C(=O)N[C@@H]([C@H](C)CC)C(=O)N(C)CC(=O)N(C)[C@H]3CCCCN(C3=O)[C@@H](Cc3ccc(C(F)(F)F)cc3)C(=O)N(C)CC(=O)N[C@@H](CCc3cc(F)c(C(F)(F)F)c(F)c3)C(=O)N2C1 [PP0730]
NRAS/KRAS (ratio of KD value with respect to GDP-bound NRAS wild-type protein to KD value with respect to KRAS) [1]: C (A compound having a KD ratio of 0.1 or more and less than 3 is denoted as C)
HRAS/KRAS (ratio of KD value with respect to GDP-bound HRAS wild-type protein to KD value with respect to KRAS) [2]: C (A compound having a KD ratio of 0.1 or more and less than 3 is denoted as C)

CCCN1C(=O)CN(C)C(=O)CN(C)C(=O)[C@H]([C@@H](C)CC)NC(=O)[C@H](CC(C)C)N(C)C(=O)C[C@@H](C(=O)N(C)C)N(C)C(=O)[C@H](C(CC)CC)N(C)C(=O)C2(CCC2)NC(=O)[C@@H]2CCCN2C(=O)[C@H](CCc2ccc(C(F)(F)F)c(Cl)c2)NC(=O)CN(C)C(=O)[C@@H]1Cc1ccc(C(F)(F)F)cc1 [PP1960] ([NMeL]I[Sar][Sar][NPrPhe(4-CF3)][Sar][hPhe(3-Cl-4-CF3)]P[Ac4c][NMeNva(3-Et)][NMeD]-NMe2; lactam N-11)
NRAS/KRAS (ratio of KD value for NRAS to KD value for KRAS) ([1]; KD ratio): B (a compound having 3 or more and less than 10 is denoted as B)
HRAS/KRAS (ratio of KD value for HRAS to KD value for KRAS) ([2]; KD ratio): C (A compound having a KD ratio of 0.1 or more and less than 3 is denoted as C)

CCO[C@@H]1C[C@H]2C(=O)NC3(CCC3)C(=O)N(C)[C@@H](C3CCCC3)C(=O)N(C)[C@H](C(=O)N(C)C)CC(=O)N(C)[C@H]3CCCCCc4ccc(cc4)C[C@@H](C(=O)N(C)CC(=O)N[C@@H](CCc4ccc(C(F)(F)F)c(OC)c4)C(=O)N2C1)N1CC/C=C\C[C@@H](C1=O)N(C)C(=O)CN(C)C(=O)[C@H]([C@@H](C)CC)NC3=O [PP2262]
NRAS/KRAS (ratio of KD value with respect to NRAS to KD value with respect to KRAS) [1]: A (a compound having 10 or more and less than 20 is denoted as A)
HRAS/KRAS (ratio of KD value with respect to HRAS to KD value with respect to KRAS) [2]: B (a compound having 3 or more and less than 10 is denoted as B)

CC[C@H](C)[C@@H]1NC(=O)[C@H](COC)N(C)C(=O)C[C@@H](C(=O)N2CCOCC2)N(C)C(=O)[C@H](C2CCCC2)N(C)C(=O)C2(CCC2)NC(=O)[C@@H]2CCCN2C(=O)[C@H](CCc2cc(F)c(C(F)(F)F)c(F)c2)NC(=O)CN(C)C(=O)[C@H](Cc2ccc(C(F)(F)F)cc2)N2CCCCC[C@@H](C2=O)N(C)C(=O)[C@@H]2CCN2C1=O [PP0865]
NRAS/KRAS (ratio of KD value with respect to NRAS to KD value with respect to KRAS) ([1]; KD ratio): B (a compound having 3 or more and less than 10 is denoted as B)
HRAS/KRAS (ratio of KD value with respect to HRAS to KD value with respect to KRAS) ([2]; KD ratio): B (a compound having 3 or more and less than 10 is denoted as B)
